From patent US20020037328A1, “Hexitol compositions and uses thereof” (priority 2000, published 2002)

Tested on: murine fibrosarcomas (RIF-1 cells)
Experiment: Tumor growth delay (tumor volume quadrupling time) of RIF-1 fibrosarcomas in C3H mice
Format: in vivo
Conditions: Dianhydrogalactitol 10 mg/kg, Cisplatin 4 mg/kg; for Delay (median TVQT of treated group minus control group) / TVQT/CTVQT (ratio of TVQT of treated tumor over untreated control) / Median (TVQT): RIF-1 tumors in C3H mice, i.p., combination 10 → 4 mg/kg (30 min apart); for TVQT/CTVQT (ratio of TVQT of treated tumor over untreated control): control 1.0; for Median (TVQT): control 6.3; for Mean TVQT ± S.E. (tumor volume quadrupling time): RIF-1 tumors intradermal in female C3H mice, single i.p. injection, combination 10 → 4 mg/kg (cisplatin 30 min after dianhydrogalactitol), 4 mice per group, untreated control 6.3 ± 0.3
Description: Transplantable experimental murine fibrosarcomas (2×10^5 RIF-1 cells) were grown intradermally in the flanks of 3 month old female C3H mice (Charles River, Hollister, Calif.). When the tumors reached a volume of approximately 100 mm^3, the mice were randomly assigned to each experimental group (4 mice per group).
The experimental compositions were prepared as described in Table 1.
Dianhydrogalactitol was obtained from NCI and was made to the appropriate concentration in DMSO. Cisplatin (David Bull Laboratories- Mulgrave, Australia, lot. 5201844x) was made to the appropriate concentration in water for injection. The compositions were injected systemically (i.e., intraperitoneally, i.p.), in a volume of 100 microliters. For the treatment of group 3, dianhydrogalactitol, was injected 30 minutes prior to the injection of cisplatin. After treatment, the growth of the tumors was monitored three times per week by caliper measurements of three perpendicular diameters of the tumor and calculation of tumor volume from the formula: […]
where D1-3 are the diameters in mm of the three perpendicular axes.
The tumors were followed until they reached a size of four times their day zero treatment volume (TVQT), or up to 30 days after treatment, whichever came first. The data is expressed as the “tumor volume quadrupling time” (TVQT) mean and as the “delay.” Mean TVQT is the mean days required for individual tumors to grow to four times the tumor volume at the initial treatment day. The “delay” is the median of days required for a tumor to grow to four times the mean size of the treated group, minus the median of days required to grow to four times the mean size of the control group. The data is also expressed as the ratio of the tumor volume quadrupling time of the treated tumor over the untreated control group (TVQT/CTVQT). Increasing values of this ratio indicate increased antitumor response.

For `N.N.[Cl][Pt][Cl]` [Cisplatin, cis-diamminedichloroplatinum II], the “Delay (median TVQT of treated group minus control group)” value was 1.45 days, the “TVQT/CTVQT (ratio of TVQT of treated tumor over untreated control)” value was 1.2 and the “Median (TVQT)” value was 7.7 days. For the same molecule, the “Mean TVQT ± S.E. (tumor volume quadrupling time)” value was 7.4 ± 0.3 days.
For `OC(C1CO1)C(O)C1CO1` (centres unmarked) [Dianhydrogalactitol, 1,2:5,6-Dianhydrogalactitol], the “Delay (median TVQT of treated group minus control group)” value was 5.12 days, the “TVQT/CTVQT (ratio of TVQT of treated tumor over untreated control)” value was 1.7 and the “Median (TVQT)” value was 11.4 days. For the same molecule, the “Mean TVQT ± S.E. (tumor volume quadrupling time)” value was 10.9 ± 0.8 days.
